The source made the active and inactive calls. The calls are words filed in the database; no cut-off is given here.
What was measured:
[1] = target: DNA topoisomerase 2-alpha (Homo sapiens) (UniProt P11388); assay: Inhibition of Top2 (unknown origin) mediated supercoiled DNA relaxation at 100 uM
[2] = target: T1, DNA topoisomerase 1 (Homo sapiens) (UniProt P11387); assay: Inhibition of Top (unknown origin) mediated supercoiled DNA relaxation at 100 uM
T1 sequence (whole entry): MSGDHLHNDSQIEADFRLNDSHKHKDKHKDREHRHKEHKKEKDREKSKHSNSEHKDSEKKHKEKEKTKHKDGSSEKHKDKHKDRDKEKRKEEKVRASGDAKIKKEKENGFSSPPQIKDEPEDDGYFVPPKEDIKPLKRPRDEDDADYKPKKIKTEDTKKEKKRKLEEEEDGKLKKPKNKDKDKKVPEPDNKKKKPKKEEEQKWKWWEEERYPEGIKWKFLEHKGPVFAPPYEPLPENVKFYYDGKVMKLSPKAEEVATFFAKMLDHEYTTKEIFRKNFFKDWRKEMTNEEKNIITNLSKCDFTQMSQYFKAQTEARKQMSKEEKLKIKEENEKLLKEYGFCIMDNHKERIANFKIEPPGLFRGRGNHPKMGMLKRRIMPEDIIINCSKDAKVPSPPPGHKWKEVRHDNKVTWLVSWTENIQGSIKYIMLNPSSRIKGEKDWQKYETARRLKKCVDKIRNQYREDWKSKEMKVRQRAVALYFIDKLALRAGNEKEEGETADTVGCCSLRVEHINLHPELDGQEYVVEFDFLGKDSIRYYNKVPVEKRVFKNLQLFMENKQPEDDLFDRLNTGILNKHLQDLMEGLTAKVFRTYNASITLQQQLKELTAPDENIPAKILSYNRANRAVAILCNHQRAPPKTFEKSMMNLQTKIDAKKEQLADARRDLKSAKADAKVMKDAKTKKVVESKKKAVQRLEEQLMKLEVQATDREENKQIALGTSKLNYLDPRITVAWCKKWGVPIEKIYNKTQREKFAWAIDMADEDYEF

[3] = target: cAMP and cAMP-inhibited cGMP 3',5'-cyclic phosphodiesterase 10A (Homo sapiens, UniProt Q9Y233); assay: Inhibition of human PDE10A catalytic domain (449 to 770 residues) using [3H]-cAMP as substrate after 15 mins by liquid scintillation counting method
cAMP and cAMP-inhibited cGMP 3',5'-cyclic phosphodiesterase 10A, sequence (Q9Y233 whole entry, the tested form may be a part): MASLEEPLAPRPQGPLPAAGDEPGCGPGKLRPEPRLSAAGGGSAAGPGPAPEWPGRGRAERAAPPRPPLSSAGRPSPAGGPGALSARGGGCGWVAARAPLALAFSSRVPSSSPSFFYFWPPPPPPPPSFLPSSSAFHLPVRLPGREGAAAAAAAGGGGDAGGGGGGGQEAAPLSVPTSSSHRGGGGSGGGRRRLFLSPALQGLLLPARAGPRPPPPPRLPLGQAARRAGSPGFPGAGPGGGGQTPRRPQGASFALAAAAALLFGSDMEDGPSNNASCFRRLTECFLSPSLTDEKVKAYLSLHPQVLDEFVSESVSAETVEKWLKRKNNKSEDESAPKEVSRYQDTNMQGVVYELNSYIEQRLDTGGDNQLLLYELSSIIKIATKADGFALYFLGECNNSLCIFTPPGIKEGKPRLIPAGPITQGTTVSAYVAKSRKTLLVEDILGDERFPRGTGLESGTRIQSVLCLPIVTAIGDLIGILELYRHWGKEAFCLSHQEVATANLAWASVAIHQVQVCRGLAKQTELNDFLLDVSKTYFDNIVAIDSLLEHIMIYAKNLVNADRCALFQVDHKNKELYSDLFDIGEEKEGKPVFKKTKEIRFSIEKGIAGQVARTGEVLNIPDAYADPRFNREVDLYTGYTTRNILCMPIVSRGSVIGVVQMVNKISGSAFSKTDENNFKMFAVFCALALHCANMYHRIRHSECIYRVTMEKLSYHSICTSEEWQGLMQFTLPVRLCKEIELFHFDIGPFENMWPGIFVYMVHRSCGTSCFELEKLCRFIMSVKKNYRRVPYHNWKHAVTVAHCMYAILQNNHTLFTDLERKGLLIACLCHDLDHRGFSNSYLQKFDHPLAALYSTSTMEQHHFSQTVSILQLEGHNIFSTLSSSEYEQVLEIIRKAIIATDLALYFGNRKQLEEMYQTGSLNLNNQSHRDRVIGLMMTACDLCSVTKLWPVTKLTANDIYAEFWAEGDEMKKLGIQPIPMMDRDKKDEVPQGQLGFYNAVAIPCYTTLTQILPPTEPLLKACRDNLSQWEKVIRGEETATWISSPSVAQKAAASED

[4] = target: Dual 3',5'-cyclic-AMP and -GMP phosphodiesterase 11A (Homo sapiens, UniProt Q9HCR9); assay: Inhibition of PDE11A catalytic domain (unknown origin) using [3H]-cAMP or [3H]-[…] as substrate after 15 mins by liquid scintillation counting method
Dual 3',5'-cyclic-AMP and -GMP phosphodiesterase 11A, sequence (Q9HCR9 whole entry, the tested form may be a part): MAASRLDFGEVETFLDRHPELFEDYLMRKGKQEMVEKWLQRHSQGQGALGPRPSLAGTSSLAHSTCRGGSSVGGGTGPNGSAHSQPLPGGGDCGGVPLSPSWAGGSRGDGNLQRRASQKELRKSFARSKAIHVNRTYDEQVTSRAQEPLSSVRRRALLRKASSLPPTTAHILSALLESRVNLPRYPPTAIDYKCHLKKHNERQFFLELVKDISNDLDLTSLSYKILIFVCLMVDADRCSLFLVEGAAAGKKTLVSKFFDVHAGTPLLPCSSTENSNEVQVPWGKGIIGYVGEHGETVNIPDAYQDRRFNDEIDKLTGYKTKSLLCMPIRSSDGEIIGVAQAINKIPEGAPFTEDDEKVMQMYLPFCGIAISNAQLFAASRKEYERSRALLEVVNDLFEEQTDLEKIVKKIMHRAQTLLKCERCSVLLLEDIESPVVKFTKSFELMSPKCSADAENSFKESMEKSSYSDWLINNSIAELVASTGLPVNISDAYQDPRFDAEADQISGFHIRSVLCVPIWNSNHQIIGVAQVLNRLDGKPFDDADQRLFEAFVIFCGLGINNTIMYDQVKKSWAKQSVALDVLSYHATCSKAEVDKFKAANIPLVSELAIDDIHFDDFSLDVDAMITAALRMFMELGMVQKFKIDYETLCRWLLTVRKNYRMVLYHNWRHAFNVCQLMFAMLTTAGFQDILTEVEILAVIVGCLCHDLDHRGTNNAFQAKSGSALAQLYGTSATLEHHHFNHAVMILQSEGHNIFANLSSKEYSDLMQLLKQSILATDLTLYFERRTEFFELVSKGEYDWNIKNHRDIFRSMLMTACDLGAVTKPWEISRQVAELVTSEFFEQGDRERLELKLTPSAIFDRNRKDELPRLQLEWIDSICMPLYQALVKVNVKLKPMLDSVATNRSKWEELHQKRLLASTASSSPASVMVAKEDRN

[5] = Tmax in Sprague-Dawley rat at 2.5 mg/kg, iv after 24 hrs by LC-MS/MS analysis; assay type: ADME, organism-based; conditions: in vivo
[6] = AUC (0 to t) in Sprague-Dawley rat at 2.5 mg/kg, iv after 24 hrs by LC-MS/MS analysis; assay type: ADME, organism-based; set-up: route intravenous, dose 2.5 mg/kg, time 24 hrs; conditions: in vivo
[7] = MRT (0 to t) in Sprague-Dawley rat at 2.5 mg/kg, iv after 24 hrs by LC-MS/MS analysis; assay type: ADME, organism-based; conditions: in vivo
[8] = Half life in Sprague-Dawley rat at 5 mg/kg, po after 24 hrs by LC-MS/MS analysis; assay type: ADME, organism-based; conditions: in vivo
[9] = AUC (0 to t) in Sprague-Dawley rat at 5 mg/kg, po after 24 hrs by LC-MS/MS analysis; assay type: ADME, organism-based; set-up: route oral, time 24 hrs, dose 5 mg/kg; conditions: in vivo
[10] = AUC (0 to infinity) in Sprague-Dawley rat at 5 mg/kg, po after 24 hrs by LC-MS/MS analysis; assay type: ADME, organism-based; set-up: route oral, time 24 hrs, dose 5 mg/kg; conditions: in vivo
[11] = MRT (0 to t) in Sprague-Dawley rat at 5 mg/kg, po after 24 hrs by LC-MS/MS analysis; assay type: ADME, organism-based; conditions: in vivo
[12] = Inhibition of human PDE5A1 D563A mutant expressed in Escherichia coli BL21 incubated for 15 mins using [3H]-cGMP as substrate by liquid scintillation counting method
[13] = Acute toxicity in KM mouse at 1000 to 1500 mg/kg, po administered as single dose measured every 24 hrs for 14 days; assay type: organism-based; conditions: in vivo, 336 h, dose 1000-1500 mg/kg, time 14 day
Rattus norvegicus = assay: Suppression of hypertension pressure in Wistar rat model of pulmonary hypertension assessed as dilation of small pulmonary vessels arteries at 20 mg/kg/day, po for 3 weeks by H and E staining based microscopy; assay type: functional, organism-based
Cytochrome P450 1A2 = target: T2, Cytochrome P450 1A2 (Homo sapiens, UniProt P05177); assay: Inhibition of CYP1A2 (unknown origin); assay type: ADME
T2 sequence (P05177 whole entry): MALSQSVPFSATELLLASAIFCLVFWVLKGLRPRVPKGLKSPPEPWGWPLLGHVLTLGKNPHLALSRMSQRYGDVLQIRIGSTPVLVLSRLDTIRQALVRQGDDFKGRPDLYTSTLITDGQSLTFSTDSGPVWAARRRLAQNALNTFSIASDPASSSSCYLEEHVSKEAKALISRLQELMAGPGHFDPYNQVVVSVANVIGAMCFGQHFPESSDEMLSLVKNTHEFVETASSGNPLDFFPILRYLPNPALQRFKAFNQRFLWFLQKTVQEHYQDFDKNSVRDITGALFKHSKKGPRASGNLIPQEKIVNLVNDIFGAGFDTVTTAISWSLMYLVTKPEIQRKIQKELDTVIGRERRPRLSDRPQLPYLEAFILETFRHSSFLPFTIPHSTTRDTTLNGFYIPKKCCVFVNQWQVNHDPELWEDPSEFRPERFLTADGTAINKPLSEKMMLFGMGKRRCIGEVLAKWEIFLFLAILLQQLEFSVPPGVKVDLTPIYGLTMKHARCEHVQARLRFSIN

Cytochrome P450 2C9 = Cytochrome P450 2C9 (Homo sapiens, UniProt P11712); assay: Inhibition of CYP2C9 (unknown origin); assay type: ADME
Cytochrome P450 2C9, sequence (P11712 whole entry): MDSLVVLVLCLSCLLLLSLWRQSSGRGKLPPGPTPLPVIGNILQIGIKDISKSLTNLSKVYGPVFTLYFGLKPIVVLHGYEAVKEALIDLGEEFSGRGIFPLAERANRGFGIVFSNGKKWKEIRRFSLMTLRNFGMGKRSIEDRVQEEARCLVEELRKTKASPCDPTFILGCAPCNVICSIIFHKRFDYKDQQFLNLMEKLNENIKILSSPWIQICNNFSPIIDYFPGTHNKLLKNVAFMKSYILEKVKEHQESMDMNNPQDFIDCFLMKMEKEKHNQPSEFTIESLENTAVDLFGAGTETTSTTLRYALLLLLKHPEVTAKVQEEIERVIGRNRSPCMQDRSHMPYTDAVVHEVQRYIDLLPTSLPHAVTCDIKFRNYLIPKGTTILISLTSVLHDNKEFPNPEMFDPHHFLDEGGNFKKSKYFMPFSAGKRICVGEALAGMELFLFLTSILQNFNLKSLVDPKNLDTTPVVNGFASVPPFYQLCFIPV

Cytochrome P450 3A4 = Cytochrome P450 3A4 (Homo sapiens, UniProt P08684); assay: Inhibition of CYP3A4 (unknown origin); assay type: ADME
Cytochrome P450 3A4, sequence (P08684 whole entry): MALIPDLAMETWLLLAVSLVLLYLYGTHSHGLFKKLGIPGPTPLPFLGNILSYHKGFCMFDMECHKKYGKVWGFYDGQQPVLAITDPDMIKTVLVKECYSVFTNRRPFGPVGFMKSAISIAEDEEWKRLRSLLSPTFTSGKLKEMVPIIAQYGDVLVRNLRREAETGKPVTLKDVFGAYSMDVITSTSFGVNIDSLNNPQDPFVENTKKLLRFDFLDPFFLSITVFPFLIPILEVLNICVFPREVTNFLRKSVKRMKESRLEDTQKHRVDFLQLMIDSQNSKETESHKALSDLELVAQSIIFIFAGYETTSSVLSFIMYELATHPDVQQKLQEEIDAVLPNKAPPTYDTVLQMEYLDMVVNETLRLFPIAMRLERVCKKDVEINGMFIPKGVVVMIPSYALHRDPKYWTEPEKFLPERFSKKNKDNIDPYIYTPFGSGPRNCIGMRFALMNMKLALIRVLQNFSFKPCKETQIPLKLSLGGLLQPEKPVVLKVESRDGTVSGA

[14] = Acute toxicity in KM mouse at 1000 to 1500 mg/kg, po administered as single dose measured every 24 hrs for 14 days relative to control; assay type: organism-based; conditions: in vivo, 336 h, dose 1000-1500 mg/kg, time 14 day

DNA topoisomerase 2-alpha (Homo sapiens), sequence (P11388 whole entry): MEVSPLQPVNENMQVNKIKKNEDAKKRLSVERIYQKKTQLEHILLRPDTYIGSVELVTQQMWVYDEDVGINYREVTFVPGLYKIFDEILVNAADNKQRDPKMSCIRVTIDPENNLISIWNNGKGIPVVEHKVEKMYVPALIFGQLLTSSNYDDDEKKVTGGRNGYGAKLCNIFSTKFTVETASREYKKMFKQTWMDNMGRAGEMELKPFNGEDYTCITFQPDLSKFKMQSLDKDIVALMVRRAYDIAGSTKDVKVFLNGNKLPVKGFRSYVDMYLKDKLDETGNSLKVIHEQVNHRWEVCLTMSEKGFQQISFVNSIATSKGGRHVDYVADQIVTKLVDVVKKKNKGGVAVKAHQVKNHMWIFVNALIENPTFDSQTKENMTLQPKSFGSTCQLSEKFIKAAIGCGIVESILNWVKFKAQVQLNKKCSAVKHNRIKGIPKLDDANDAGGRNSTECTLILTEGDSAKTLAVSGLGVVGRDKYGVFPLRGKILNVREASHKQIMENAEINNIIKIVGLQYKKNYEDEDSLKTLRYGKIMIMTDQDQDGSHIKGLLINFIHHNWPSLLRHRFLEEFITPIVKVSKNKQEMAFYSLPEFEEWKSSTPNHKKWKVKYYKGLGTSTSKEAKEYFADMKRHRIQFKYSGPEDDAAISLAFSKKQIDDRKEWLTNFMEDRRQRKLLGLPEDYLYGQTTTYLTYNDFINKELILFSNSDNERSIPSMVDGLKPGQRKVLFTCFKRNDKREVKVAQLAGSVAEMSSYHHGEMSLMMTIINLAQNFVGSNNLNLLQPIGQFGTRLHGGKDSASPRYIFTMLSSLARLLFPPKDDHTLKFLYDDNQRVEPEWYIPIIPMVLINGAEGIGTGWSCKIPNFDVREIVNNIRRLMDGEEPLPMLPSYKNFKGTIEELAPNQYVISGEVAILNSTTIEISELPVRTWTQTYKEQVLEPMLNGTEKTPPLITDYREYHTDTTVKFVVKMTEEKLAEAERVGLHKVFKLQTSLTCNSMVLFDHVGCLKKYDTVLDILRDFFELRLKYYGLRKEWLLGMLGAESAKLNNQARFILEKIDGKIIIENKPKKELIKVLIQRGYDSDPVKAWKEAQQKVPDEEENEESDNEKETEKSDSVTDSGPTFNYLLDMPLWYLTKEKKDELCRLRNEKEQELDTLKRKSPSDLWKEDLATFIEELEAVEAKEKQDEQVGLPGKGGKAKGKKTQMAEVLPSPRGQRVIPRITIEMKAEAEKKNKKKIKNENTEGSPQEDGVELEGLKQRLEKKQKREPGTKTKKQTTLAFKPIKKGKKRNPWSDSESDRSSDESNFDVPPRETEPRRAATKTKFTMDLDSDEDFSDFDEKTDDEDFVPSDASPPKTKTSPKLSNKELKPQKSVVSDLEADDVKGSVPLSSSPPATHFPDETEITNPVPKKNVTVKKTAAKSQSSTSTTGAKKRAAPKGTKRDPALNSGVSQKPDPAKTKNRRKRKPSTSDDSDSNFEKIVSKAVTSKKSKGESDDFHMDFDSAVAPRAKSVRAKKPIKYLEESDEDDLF

COc1ccc2c3c([nH]c2c1)[C@@H]1N(CC3)C(=O)c2c(OC)cccc2N1C
inhibition [1]: inactive | inhibition [2]: inactive | IC50 [3]: 3 µM | IC50 [4]: > 30 µM | Tmax [5]: 4.98 min | AUC(0-t) at 24 h [6]: 519 ng·h/mL | MRT last at 24 h [7]: 8.4 min | half-life [8]: 85.8 min | AUC(0-t) at 24 h [9]: 146 ng·h/mL | AUC(0-inf) [10]: 155 ng·h/mL | MRT last at 24 h [11]: 191 min | IC50 [12]: 2.48 µM | Activity [13]: Non-Toxic | Activity (Rattus norvegicus): Active | IC50 (Cytochrome P450 1A2): 10 µM | IC50 (Cytochrome P450 2C9): 10 µM | IC50 (Cytochrome P450 3A4): 10 µM | Activity [14]: > 1.5 g/kg
